Structures are written as SMILES.

Test [1] deals with differentiated L6-myotubes. The test is described as follows: cAMP production relative to isoprenaline (Biological example 2 of WO 2019/053427). The class given is cell-based. The note with it: 0.25 h, compound at 10 μM, activity relative to isoproterenol at 10 μM. The procedure, abridged:
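Differentiated L6 myotubes stimulated 15 min with test compound or isoprenaline, each at final 1×10^−5 M, in HBSS with 1% BSA, 5 mM HEPES, 1 mM IBMX, pH 7.4. cAMP production by the compound expressed relative to that induced by the same concentration of isoprenaline.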
(Changes in cAMP serve as a functional read-out for many G protein-coupled receptors.)

Test [2] concerns differentiated L6-myotubes. The test is described as follows: Glucose uptake screen (Biological example 1 of WO 2019/053427). As to conditions: compound at 10 μM, activity relative to isoproterenol at 10 μM, read-out: Biological example 1 of WO 2019/053427 (GU). Format: cell-based. In short, it runs like this:
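Rat L6 myoblasts were differentiated into myotubes over 7 days in 2% FBS, then serum-starved overnight. Cells were stimulated with 1×10^−5 M compound plus β2 antagonist ICI-118551 for 1 h 40 min and re-dosed for 20 min in glucose-free medium. Uptake of 50 nM ^3H-2-deoxyglucose over 10 min was counted after NaOH lysis.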

As to `CC(=O)N[C@H]1CC[C@@H](CNC[C@H](O)c2cncc(F)c2)CC1` [Compound 310, N-[(1S,4s)-4-{[(R)-2-(5-fluoro-3-pyridyl)-2-hydroxyethylamino]methyl}cyclohexyl]acetamide], the Emax at 10 µM in test [1] was under 25%; in test [2], 25 to 50%.
For `CC(C)(C)CNC[C@H](O)c1cccc(F)c1` [Compound 117, (R)-1-(m-flurophenyl)-2-(neopentylamino)-1-ethanol], in that order: under 25% and 25 to 50%.
In the case of `CC(C)(C[C@H]1CC[C@H](NS(C)(=O)=O)CC1)NC[C@H](O)c1cccc(C(F)(F)F)n1` [Compound 461, (S)-2-{1,1-dimethyl-2-[(1r,4S)-4-(mesylamino)cyclohexyl]ethylamino}-1-[6-(trifluoromethyl)-2-pyridyl]-1-ethanol], the Emax at 10 µM in test [1] was under 25%; in test [2] it was 25 to 50%.
Regarding `CC(C)(NC[C@H](O)c1cncc(F)c1)[C@H]1CC[C@H](N)CC1` [Compound 344, (R)-1-(5-fluoro-3-pyridyl)-2-{1-methyl-1-[(1r,4R)-4-aminocyclohexyl]ethylamino}-1-ethanol], the Emax at 10 µM in test [1] and in test [2] was under 25% in each case.
Take `CO[C@H]1CC[C@H](C[C@@H]2CC[C@H]([C@@H](O)c3cccc(F)c3)N2)CC1` [Compound 325, (S)-[(2R,5S)-5-{[(1r,4S)-4-methoxycyclohexyl]methyl}-2-pyrrolidinyl](m-fluorophenyl)methanol]: the Emax at 10 µM in test [1] was under 25%; in test [2], over 75%.
For `O[C@@H](c1cccc(F)c1)C12CCC(CCCc3ccccc3)(CC1)N2` [Compound 535, (S)-(m-fluorophenyl){4-(3-phenylpropyl)-7-azabicyclo[2.2.1]hept-1-yl}methanol], in that order: under 25% and 25 to 50%.
For `CC1(C)C[C@@H]([C@@H](O)c2cncc(F)c2)N1` [Compound 215, (S)-[(S)-4,4-dimethyl-2-azetidinyl](5-fluoro-3-pyridyl)methanol], in that order: under 25% and 25 to 50%.
For `CC(=O)N(C)[C@H]1CC[C@@H](CC(C)(C)NC[C@H](O)c2cccc(F)c2)CC1` [Compound 492, N-[(1S,4s)-4-{2-[(R)-2-(m-fluorophenyl)-2-hydroxyethylamino]-2-methylpropyl}cyclohexyl]-N-methylacetamide], in that order: under 25% and 25 to 50%.
Consider `CC1(C)C[C@@H]([C@@H](O)c2cccc(Cl)c2)N1` [Compound 231, (S)-[(S)-4,4-dimethyl-2-azetidinyl](m-chlorophenyl)methanol], for which the figures for the Emax at 10 µM in test [1] and in test [2] were under 25% and 25 to 50%, respectively.
In the case of `CC1(NC[C@H](O)c2cccc(F)c2)CCC1` [Compound 83, (R)-1-(m-fluorophenyl)-2-(1-methylcyclobutylamino)-1-ethanol], the Emax at 10 µM in test [1] was 25 to 50%; in test [2], over 75%.
For `CO[C@H]1CC[C@H](C[C@@H]2CC[C@H]([C@H](O)c3cccc(F)c3)N2)CC1` [Compound 326, (R)-[(2R,5S)-5-{[(1r,4S)-4-methoxycyclohexyl]methyl}-2-pyrrolidinyl](m-fluorophenyl)methanol], in that order: under 25% and over 75%.
For `O[C@@H](CNCCC[C@H]1CC[C@@H](O)CC1)c1cccc(F)c1` [Compound 306, (R)-1-(m-fluorophenyl)-2-{3-[(1s,4R)-4-hydroxycyclohexyl]propylamino}-1-ethanol], in that order: under 25% and 25 to 50%.
For `CC12CCC([C@H](O)c3ccccc3F)(CC1)N2` [Compound 181, (R)-(o-fluorophenyl)(4-methyl-7-azabicyclo[2.2.1]hept-1-yl)methanol], in that order: under 25% and over 75%.
Regarding `Oc1ccc(C(O)CNCCC2CC2)cc1` (stereo not shown) [Compound 24, p-[2-(2-cyclopropylethylamino)-1-hydroxyethyl]phenol], the figures for the Emax at 10 µM in test [1] and in test [2] were under 25% and 50 to 75%, respectively.
`CC1(C)CC[C@H]([C@@H](O)c2cncc(O)c2)N1` [Compound 166, 5-{(S)-[(R)-5,5-dimethyl-2-pyrrolidinyl]hydroxymeth-yl}-3-pyridinol]: the Emax at 10 µM in test [1] is under 25%; in test [2], 25 to 50%.
For `CC(=O)N(Cc1ccccc1)[C@H]1CC[C@H](C[C@@H]2CC[C@H]([C@H](O)c3cccc(F)c3)N2)CC1` [Compound 482, N-[(1S,4r)-4-({(2S,5R)-5-[(R)-(m-fluorophenyl)hydroxymethyl]-2-pyrrolidinyl}methyl)cyclohexyl]-N-benzylacetamide], in that order: under 25% and under 25%.
For `CC1(C)CCC[C@H]([C@H](O)c2cccc(Cl)c2)N1` [Compound 165, (R)-[(R)-6,6-dimethyl-2-piperidyl](m-chlorophenyl)methanol], in that order: under 25% and 25 to 50%.
Turning to `O[C@H](c1cccc(F)c1)C12CCC(CCCc3ccccc3)(CC1)N2` [Compound 536, (R)-(m-fluorophenyl){4-(3-phenylpropyl)-7-azabicyclo[2.2.1]hept-1-yl}methanol], the Emax at 10 µM in test [1] was 25 to 50%; in test [2], over 75%.
For `CC1(C)C[C@@H]([C@H](O)c2cccc(Cl)c2)N1` [Compound 232, (R)-[(S)-4,4-dimethyl-2-azetidinyl](m-chlorophenyl)methanol], in that order: under 25% and 25 to 50%.
For `CS(=O)(=O)N(Cc1ccccc1)c1cccc(CC23CCC([C@H](O)c4cccc(F)c4)(CC2)N3)c1` [Compound 513, (R)-[4-({m-[(benzyl)-N-mesylamino]phenyl}methyl)-7-azabicyclo[2.2.1]hept-1-yl](m-fluorophenyl)methanol], in that order: under 25% and 25 to 50%.
For the compound `CC1(NC[C@H](O)c2cccc(F)c2)CC1` [Compound 82, (R)-1-(m-fluorophenyl)-2-(1-methylcyclopropylamino)-1-ethanol], the Emax at 10 µM in test [1] is under 25%; in test [2], over 75%.
As for `CCC[C@H]1CCC[C@@H]([C@@H](O)c2cccc(F)c2)N1` [Compound 119, (S)-[(2S,6S)-6-propyl-2-piperidyl](m-fluorophenyl)methanol], the Emax at 10 µM was under 25% in test [1] and 25 to 50% in test [2].
For `O[C@@H](CNCCC[C@H]1CC[C@H](OCc2ccccc2)CC1)c1cccc(F)c1` [Compound 278, (R)-1-(m-fluoropheny)-2-{3-[(1r,4S)-4-(benzyloxy)cyclohexyl]pro-pylamino}-1-ethanol], in that order: under 25% and 25 to 50%.
Consider `CC1(C)CC[C@H]([C@@H](O)c2cccc(N)c2F)N1` [Compound 226, (S)-[(R)-5,5-dimethyl-2-pyrrolidinyl](3-amino-2-fluorophenyl)methanol], for which the Emax at 10 µM in test [1] is under 25%; in test [2], 25 to 50%.
For the compound `CC1(C)CC[C@H]([C@@H](O)c2cncc(F)c2)N1` [Compound 156, (S)-[(R)-5,5-dimethyl-2-pyrrolidinyl](5-fluoro-3-pyridyl)methanol], the Emax at 10 µM in test [1] and in test [2] was under 25% each time.
In the case of `COc1ccc(C[C@@]2(C)CC[C@H]([C@@H](O)c3cccc(F)c3)N2)cc1` [Compound 365, (S)-{(2R,5R)-5-[(p-methoxyphenyl)methyl]-5-methyl-2-pyrrolidinyl}(m-fluorophenyl)methanol], the Emax at 10 µM in test [1] was under 25%; in test [2] it was over 75%.
For `CC(C)(CC[C@H]1CC[C@@H](O)CC1)NC[C@H](O)c1ccccc1F` [Compound 320, (R)-2-{1,1-dimethyl-3-[(1s,4R)-4-hydroxycyclohexyl]propylamino}-1-(o-fluorophenyl)-1-ethanol], in that order: 25 to 50% and over 75%.
For `CC(=O)N[C@H]1CC[C@@H](CC(C)(C)NC[C@@H](O)c2cccc(C#N)n2)CC1` [Compound 423, N-[(1S,4s)-4-{2-[(R)-2-(6-cyano-2-pyridyl)-2-hydroxyethylamino]-2-methylpropyl}cyclohexyl]acetamide], in that order: under 25% and under 25%.
As for `CCCCNC[C@H](O)c1ccc(F)cc1` [Compound 46, (R)-2-(butylamino)-1-(p-fluorophenyl)-1-ethanol], the Emax at 10 µM in test [1] is under 25%; in test [2], 50 to 75%.
As to `COc1ccc(CC23CCC([C@H](O)c4cccc(F)c4)(CC2)N3)cc1` [Compound 401, (R)-(m-fluorophenyl){4-[(p-methoxyphenyl)methyl]-7-azabicyclo[2.2.1]hept-1-yl}methanol], the results for the Emax at 10 µM in test [1] and in test [2] were under 25% and over 75%, respectively.
As to `CO[C@H]1CC[C@H](C[C@@H]2CC[C@H]([C@@H](O)c3ccccc3F)N2)CC1` [Compound 336], the Emax at 10 µM was under 25% in test [1] and 25 to 50% in test [2].
Regarding `CO[C@H]1CC[C@H](CNC[C@H](O)c2cncc(F)c2)CC1` [Compound 229, (R)-1-(5-fluoro-3-pyridyl)-2-({[(1r,4R)-4-methoxycyclohexyl]meth-yl}amino)-1-ethanol], the Emax at 10 µM in test [1] was under 25%; in test [2] it was 50 to 75%.

Source of the values: US20260256751A1, “COMBINATION OF BETA-2-ADRENERGIC RECEPTOR AGONISTS AND GLP-1 RECEPTOR AGONISTS FOR USE IN TREATING HYPERGLYCAEMIA” (ATROGI AB, priority 2023, published 2026).
